Data: US20150157588A1, “Pharmaceutical Composition Comprising Amino-Phenyl-Acetic Acid Octadec-(Z)-9-enyl Ester and Use Thereof for Treating Tumors” (Yeda Research and Development Co., Ltd., priority 2012, published 2015)

Test system: Clone D122 of the 3LL mouse Lewis Lung carcinoma
Test: Lung carcinoma mouse model: 3LL cells in footpad, local growth and mortality from lung metastasis after excision
Type: in vivo
Conditions: for day of 50% mortality from lung metastasis: 100 μg in PBS subcutaneously twice weekly
Method: Clone D122 of the 3LL mouse Lewis Lung carcinoma, a standard model of growth and metastasis, was used. Syngeneic 8-weeks old C57BL/6 male mice were injected into one hind footpad with 50,000 3LL tumor cells. Local growth of the tumor was followed. Tumors that reached the size of 8 mm×8 mm were excised; tumor excision at this stage was known to trigger the growth of lung metastases that eventually killed the mice. This model allows for investigation of the effect of treatment on two phases of the tumor progression: 1) the effect on local growth, as determined by the time it takes for the tumors to reach the size for excision; and 2) the effect on tumor metastasis as measured by the time it takes for death to occur after excision.
Three groups of 12-13 mice each were injected with 3LL tumor cells as described in the Materials and Methods section, and were treated subcutaneously with 100 μg of amino-phenyl-acetic acid octadec-(Z)-9-enyl ester injected twice weekly (every Monday and Thursday) either from day 6 after tumor injection (to investigate the effect on local growth and metastasis) or from the time of excision of the tumor (to investigate the effect on metastasis only), or were injected with PBS as a control. […] Tumors were excised on the same day. Mice treated with PBS or mice treated with amino-phenyl-acetic acid octadec-(Z)-9-enyl ester in PBS only following tumor excision reached excision size beginning on day 25 (white bars). In contrast, mice treated with amino-phenyl-acetic acid octadec-(Z)-9-enyl ester from day 6 following injection (black bars) reached excision size on day 32, and all mice were excised by day 41.
The PBS-treated mice reached 50% mortality on day 50 (triangles); the mice receiving amino-phenyl-acetic acid octadec-(Z)-9-enyl ester in PBS after tumor excision reached 50% mortality only on day 68 (squares); and the mice treated with amino-phenyl-acetic acid octadec-(Z)-9-enyl ester in PBS from day 6 following tumor implantation reached 50% mortality on day 90 (circles).

[1] = 100 μg in PBS subcutaneously twice weekly from day 6 after tumor injection

## CCCCCCCC/C=C\CCCCCCCCOC(=O)C(N)c1ccccc1 (centres unmarked) [amino-phenyl-acetic acid octadec-(Z)-9-enyl ester]
[1]
  day after tumor injection on which mice reached excision size (8 mm×8 mm): 32 days
  day by which all mice were excised: ≤ 41 days
From day 6 following tumor implantation
  day of 50% mortality from lung metastasis: 90 days
From tumor excision
  day of 50% mortality from lung metastasis: 68 days
Twice weekly at the dose of 100 μg, in PBS, subcutaneously
  effect on local tumor growth: inhibited local tumor growth
